Data taken from ChEMBL document CHEMBL1133234, “Synthesis and biological activity of 4'-methoxy derivatives of abscisic acid” (2000).
The source made the active and inactive calls. The calls are words filed in the database; no cut-off is given here.

Assays:
Type in all cases: functional
[1] = test system: Hordeum vulgare subsp. vulgare; experiment: Compound was tested for inhibition of GA-inducible alpha-amylase induction in barley aleurone protoplasts at 0.1 uM
[2] = test system: Hordeum vulgare subsp. vulgare; experiment: Compound was tested for inhibition of GA-inducible alpha-amylase induction in barley aleurone protoplasts at 1 uM
[3] = test system: Hordeum vulgare subsp. vulgare; experiment: Compound was tested for inhibition of GA-inducible alpha-amylase induction in barley aleurone protoplasts at 100 uM
[4] = test system: Hordeum vulgare subsp. vulgare; experiment: Compound was tested for inhibition of GA-inducible alpha-amylase induction in barley aleurone protoplasts at 10 uM
[5] = test system: Hordeum vulgare subsp. vulgare; experiment: Compound was tested for inhibition of GA3-induced alpha-amylase induction and induction of the accumulation of dehydrin in unstressed barley seeds; Active
Lepidium sativum [6] = experiment: Compound was tested for inhibition of cress germination at 0.1 uM
Lepidium sativum [7] = experiment: Compound was tested for inhibition of cress germination at 10 uM
Lepidium sativum [8] = experiment: Compound was tested for inhibition of cress germination at 100 uM
Lepidium sativum [9] = experiment: Compound was tested for inhibition of cress germination at 1 uM
[10] = test system: Hordeum vulgare subsp. vulgare; experiment: Compound was tested for inhibition of GA3-induced alpha-amylase induction and induction of the accumulation of dehydrin in unstressed barley seeds at 10 uM; Active

Row | inhibition [1] [%] | inhibition [2] [%] | inhibition [3] [%] | inhibition [4] [%] | Activity [5] | Activity [10] | Structure (SMILES) | inhibition at 0.1 µM (Lepidium sativum [6]) [%] | inhibition at 10 µM (Lepidium sativum [7]) [%] | inhibition at 100 µM (Lepidium sativum [8]) [%] | inhibition at 1 µM (Lepidium sativum [9]) [%]
1 | 20 | 50 | 100 | 90 | Active |  | CO[C@H]1C=C(C)[C@](O)(/C=C/C(C)=C\C(=O)O)C(C)(C)C1 | ~20 | ~95 | ~100 | ~40
2 | 60 | 90 | 100 | 100 | Active |  | CO[C@@H]1C=C(C)[C@](O)(/C=C/C(C)=C\C(=O)O)C(C)(C)C1 | ~40 | ~95 | ~100 | ~60
3 | 50 | 100 | 100 | 100 |  | Active | CC1=CC(=O)CC(C)(C)[C@@]1(O)/C=C/C(C)=C\C(=O)O (racemic) [(+)-ABSCISIC ACID] | ~60 | ~100 | ~100 | ~80
